Measurements from patent publication US20070140979A1, “Method for accelerating the rate of mucociliary clearance” (BAYER AKTIENGESELLSCHAFT, priority 1998, published 2007).
Like-named read-outs stand apart in the source and are kept apart here.

Tests used:
guinea pig trachea = test: Tracheal mucus velocity (TMV) in the guinea-pig; type: in vivo; conditions: 10 mM x 20 mins aerosol, 15 minutes after aerosol
Description: […] […] The procedure used in this Example is described in Newton et al. in “Cila, Mucus and Mucociliary Interactions,” Ed., Baum, G. L. et al., Marcel Dekker, New York, 1998; Newton et al., Ped. Pulm. S17, Abs. 364, 998).
A Bikunin formulation (50 ug/mL Bikunin (SEQ ID NO: 52) was prepared in HBBS containing 137 mM NaCl, 3 mM KC1, 3 mM KH2PO4, 8 mM Na2HPO4, 0.2% Tween-80, pH 7.1). The formulation was sterile filtered and endotoxin tested prior to use in this example. HBSS was used as a control solution. Hypnorm® (Fentanyl citrate 0.315 mg/mL and Fluanisone 10 mg/mL) was obtained from Janssen Animal Health and Hypnovel® (Midazolam 5 mg/mL) was obtained from Roche. Male Dunkin-Hartley guinea pigs (550-750 g) were supplied by David Hall, UK. Thermistor probes were obtained from Kane-May Ltd, UK. […]
TMV was monitored using a lead collimated miniature Beta particle detector probe arranged to detect the radioactivity emitted from an injected aliquot of ^32P-labelled Saccharomyces cerevisiae as it was transported on the tracheal mucociliary layer of an anaesthetized guinea pig (Newton and Hall 1998) FIG. 16(a) illustrates the arrangement of the syringe and beta probe. FIG. 16(b) illustrates the counts detected by the probe as the ^32P-labelled S.cerevisiae is transported along the tracheal mucociliary layer. […]
[…] TMV was monitored immediately and every 15 minutes for 30 minutes. […]

diseased patients = conditions: inhalation; Robinson et al 1997, App et al 1990; cited from earlier work
human plasma kallikrein = target: T1, human plasma kallikrein (Homo sapiens, UniProt P03952); test: Inhibition of human plasma kallikrein, Ki; type: biochemical; conditions: for Potency as inhibitor of plasma kallikrein compared with aprotinin (Trasylol), in words: in vitro
T1 construct: purchased Sigma (St. Louis, Mo.)
Description: Proteases. Bovine trypsin, human plasmin, and bovine pancreatic kallikrein quantitation was carried out by active site titration using p-nitrophenyl p′-guanidinobenzoate HCl as previousl) described (Chase, T., and Shaw, E., (1970) Methods Enzmol. 19, 20-27). […] Human tissue kallikrein (Bayer, Germany) quantification was carried out by active site titration using p′nitrophenyl p′-guanidinobenzoate HCl as previously described (Chase, T., and Shaw, E., (1970) Methods Enzmol. 19, 20-27).
After 5 min. at 37° C., 15 μl of 2 mM GPK-AMC was added and the change in fluorescence (as above) was monitored. […] After 5 min. incubation at 37° C., 25 μl of 20 mM GPK-AMC was added and the change in fluorescence monitored. […] After 5 min. at 37° C. 15 μl of 20 mM PFR-AMC was added and the change in fluorescence monitored.

[1] = Isoelectric point by isoelectric focusing; type: physicochemical; conditions: Ampholine PAGplate pH 3.5 to 9.5, refolded purified protein
Description: After staining, the migration distance from the cathodic edge of the gel to the different protein bands was measured. The pI of each unknown was determined by using a standard curve generated by a plot of the migration distance of standards versus the corresponding pI's. […] (Tenstad et al., 1994, Acta Physiol. Scand. 152:33-50).

[2] = tested on: human bronchial epithelial cell (HBE); test: Short circuit current (Isc) of cultured human bronchial epithelial cells in Ussing chambers; type: cell-based; conditions: for Sodium current: 70 nM
Description: Tertiary HBE cell monolayers grown to confluence were mounted in modified Ussing chambers, immersed in Krebs buffer (KBR) solution and bubbled with 95% 02/5% C02 warmed to 37 C.
Cells were left to equilibrate for 20 minutes before calibrating for background noise and fluid resistance. Transepithelial potential difference was then clamped to 0 mV using a WPI EVC 4000 voltage clamp. Ag/AgCl electrodes were used to monitor Isc. […] Once a response to amiloride was seen, it was washed out with KBR solution. […] 90 minutes following agent treatment, amiloride (10 uM) was added. Once the current was stable forskolin (10 uM in PBS) and then bumetanide (100 uM in PBS) was added.
Cells were left to equilibrate for 20 minutes before calibrating for background noise and fluid resistance. Transepithelial potential difference was then clamped to 0 mV using a WPI EVC 4000 voltage clamp. Ag/AgCl electrodes were used to monitor Isc. […] Once a response to amiloride was seen, it was washed out with KBR solution. […] 90 minutes following agent treatment, amiloride (10 uM) was added.

[3] = tested on: Xenopus kidney epithelial cells (A6 cells); conditions: exposure of the apical membrane, Vallet et al 1997, Chraibi et al 1998, cited from earlier work
allergic sheep = conditions: cited from earlier work
[4] = tested on: human bronchial epithelial cell (HBE); conditions: 1.5 μg.ml−1 (70 nM), normal HBE cells; McAulay et al 1998; cited from earlier work

T1 sequence (P03952 391-638 limits assumed): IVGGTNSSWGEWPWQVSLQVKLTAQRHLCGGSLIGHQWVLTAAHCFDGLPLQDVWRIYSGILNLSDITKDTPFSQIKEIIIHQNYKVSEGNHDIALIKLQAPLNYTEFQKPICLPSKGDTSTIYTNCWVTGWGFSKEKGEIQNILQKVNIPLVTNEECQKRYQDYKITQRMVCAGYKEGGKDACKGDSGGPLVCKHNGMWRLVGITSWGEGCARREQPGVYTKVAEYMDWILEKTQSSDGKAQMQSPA
T1 sequence (P03952 20-390 partner limits assumed): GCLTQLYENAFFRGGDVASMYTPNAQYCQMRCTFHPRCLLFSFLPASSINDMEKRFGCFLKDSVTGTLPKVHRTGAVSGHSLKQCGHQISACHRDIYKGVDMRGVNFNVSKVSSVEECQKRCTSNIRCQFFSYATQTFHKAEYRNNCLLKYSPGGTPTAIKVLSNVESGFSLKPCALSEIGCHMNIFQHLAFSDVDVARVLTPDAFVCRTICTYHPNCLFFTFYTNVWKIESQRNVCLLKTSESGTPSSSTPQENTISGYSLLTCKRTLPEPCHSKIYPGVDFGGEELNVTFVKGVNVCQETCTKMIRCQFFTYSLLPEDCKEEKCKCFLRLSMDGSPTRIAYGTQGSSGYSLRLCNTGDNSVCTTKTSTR

N=C(N)NC(=O)c1nc(Cl)c(N)nc1N [amiloride]
TMV after aerosol (guinea pig trachea): statistically significant increase
MCC in diseased patients (diseased patients): significantly increase

CC[C@H](C)[C@@H]1NC(=O)[C@H](Cc2ccccc2)NC(=O)[C@H](CC(N)=O)NC(=O)[C@H](CC(N)=O)NC(=O)[C@@H]2CSSC[C@@H]3NC(=O)[C@H](C)NC(=O)[C@H](CCC(=O)O)NC(=O)[C@H](CCC(=O)O)NC(=O)[C@H](CO)NC(=O)[C@H](CCCNC(=N)N)NC(=O)[C@H](Cc4ccc(O)cc4)NC(=O)[C@H](CO)NC(=O)[C@H](CC(N)=O)NC(=O)[C@H](CCCCN)NC(=O)[C@H](CC(N)=O)NC(=O)CNC(=O)[C@H](CCCNC(=N)N)NC(=O)[C@H](CSSC[C@H](NC(=O)[C@@H]4CCCN4C(=O)CNC(=O)[C@H]([C@@H](C)O)NC(=O)[C@H](C(C)C)NC(=O)[C@H](C)NC(=O)[C@H](CC(N)=O)NC(=O)[C@H](C)NC(=O)[C@H]([C@@H](C)O)NC(=O)[C@@H](NC(=O)[C@H](Cc4ccc(O)cc4)NC(=O)[C@H](CCC(=O)O)NC(=O)[C@H](CCC(=O)O)NC(=O)[C@@H](N)Cc4ccc(O)cc4)CSSC[C@@H](C(=O)N[C@@H](Cc4ccccc4)C(=O)N[C@@H](CCCNC(=N)N)C(=O)N[C@@H](CCC(N)=O)C(=O)O)NC(=O)[C@H](CCCNC(=N)N)NC(=O)[C@H](CC(C)C)NC(=O)[C@H](CCSC)NC3=O)C(=O)N[C@@H](CCCNC(=N)N)C(=O)N[C@@H](C)C(=O)N[C@@H](CO)C(=O)N[C@@H](Cc3ccccc3)C(=O)N3CCC[C@H]3C(=O)N[C@@H](CCCNC(=N)N)C(=O)N[C@@H](Cc3c[nH]c4ccccc34)C(=O)N[C@@H](Cc3ccc(O)cc3)C(=O)N[C@@H](Cc3ccccc3)C(=O)N[C@@H](CC(=O)O)C(=O)N[C@@H](C(C)C)C(=O)N[C@@H](CCC(=O)O)C(=O)N[C@@H](CCCNC(=N)N)C(=O)N[C@@H](CC(N)=O)C(=O)N[C@@H](CO)C(=O)N2)NC(=O)CNC(=O)CNC(=O)[C@H](Cc2ccc(O)cc2)NC1=O [Bikunin (102-159)]
Ki (human plasma kallikrein; Kallikrein ([…] nM), Table 4B): 7 nM
Potency as inhibitor of plasma kallikrein compared with aprotinin (Trasylol), in words (human plasma kallikrein): significantly more potent
pI [1]: 8.3

Aprotinin
Sodium short circuit current ([2]; 5 ug/mL, FIG. 20): decrease
Transepithelial Na+ transport [3]: reduce
Transepithelial Na+ transport ([3]; listed as aprotinin): reduced

Des Pro2-Ser10-Arg15-Asp24-Thr26-Glu31-Asn41-Glu53-Aprotinin [Aprotinin double mutein]
Sodium short circuit current ([2]; 0.5 to 5 ug/mL, 90 minute period): dose dependently inhibited
Sodium short circuit current ([2]; 0.5 to 5 ug/mL, 90 minute period, listed as aprotinin double mutein): decrease

α1-PI: serpin-family serine protease inhibitor alpha(1)-protease inhibitor
Effect on Na+ Isc ([2]; 50 μg.ml−1, normal HBE cells, further study): without a significant effect
Antigen-induced reduction in TMV (allergic sheep; 10 mg, 30 min before or 1 h after antigen challenge, 6 h after challenge): attenuated
Baseline TMV (allergic sheep; administered on its own (no antigen challenge), over a 6 h period): no effect
Antigen-induced fall in TMV (allergic sheep; given 6 h after antigen challenge, at 24 h after challenge): significant reversal

B1: Bikunin: Bikunin (SEQ ID NO: 52), two Kunitz domain human homologue of bovine aprotinin, used in airway and HBE studies (protein, listed as Homo sapiens)
chain: ADRERSIHDFCLVSKVVGRCRASMPRWWYNVTDGSCQLFVYGGCDGNSNNYLTKEECLKKCATVTENATGDLATSRNAADSSVPSAPRRQDSEDHSSDMFNYEEYCTANAVTGPCRASFPRWYFDVERNSCNNFIYGGCRGNKNSYRSEEACMLRCFRQQENPPLPLGSK
Sodium current ([2]; 90 minute period): decreases
Sodium current ([2]; 90 minute period, listed as Bukinin): inhibited
Inhibition of Na+ Isc ([2]; 5 μg.ml−1, normal HBE cells, further study): 84%
Sodium short circuit current ([2]; 5 ug/mL, FIG. 20): decrease
Inhibition of Na+ Isc [4]: 54%

B2: Recombinant Bikunin: fragment of placental bikunin containing both Kunitz domains (1-170), expressed in baculovirus/Sf9 cells (protein)
chain: B1 chain
Potency as inhibitor of plasma kallikrein compared with aprotinin (Trasylol), in words (human plasma kallikrein): more potent
Potency as inhibitor of plasma kallikrein compared with aprotinin (Trasylol), in words (human plasma kallikrein; listed as bikunin(1-170)): significantly more potent
